{"source": "patent US7829118B1", "about": "“Modified hyaluronic acid polymer compositions and related methods” (Carbylan Biosurgery, Inc., priority 2009, dated 2010)", "tested_on": "Femoral Cartilage (medial femoral condyle) of goat stifle joint", "assay": "Modified Mankin scoring of femoral cartilage after intra-articular injection in goats (Example 34)", "type": "in vivo", "settings": "for Total Mankin Score / Mankin Score: Tide Mark Integrity / Mankin Score: Cells / Mankin Score: Safranin-O Stain / Mankin Score: Structure: RFC", "procedure": "A lightly crosslinked hydrogel prepared by reaction of vinyl-sulfone-modified hyaluronic acid with PEG-dithiol (HA-VS-PEG-(SH)2), containing the corticosteroid, triamcinolone acetonide, was injected into the intraarticular space of the stifle joint of female goats. Morphological, synovial fluid and histological examinations were conducted to evaluate local and systemic effects of such injections. Details of the study are provided below.\nAll test materials were stored at room temperature prior to use. For each Test or Control Material, a 1.5 ml dosage was prepared for each individual intra-articular injection.\nStudy design was as follows.\nThe basic procedure for injection was identical for all subjects. All injections were performed under strict asepsis. The animals were anesthetized with an intravenous injection of Diazepam (0.1-0.5 mg/kg) and Ketamine (4.4-7.5 mg/kg) to effect. Each knee was physically examined for drawer, range of motion, swelling, temperature, crepitus, patella tracking, and valgus/varus abnormalities\nAll injections were conducted utilizing routine aseptic techniques. The left and right stifles were prepared for injection by clipping the areas, then cleansing them with chlorohexidine scrub. The animal was placed in dorsal recumbency. The right stifle was cleansed with chlorohexidine scrub alternating with 70% isopropyl alcohol three times and painted with iodine solution.\nA standard technique was used to inject each stifle joint. A 2-inch by 21gauge sized sterile needle was introduced into the intra-articular space via an anteromedial approach. The lateral intercondylar notch wall of the medial femoral condyle was felt and the needle backed slightly off. 1.5 ml of the appropriate Test Material was injected into the right joint. The injection needle was removed and pressure was maintained on the injection site. The injected stifle joint was then cycled 20-times through a full range of motion. Immediately following this, the left stifle joint was cleansed with chlorohexidine scrub alternating with 70% isopropyl alcohol three times and painted with iodine solution and 1.5 ml of the Control Material was injected into the left stifle joint in a similar manner as described above for the right stifle. The injection needle was removed and pressure maintained on the injection site. The injected stifle joint was then cycled 20-times through a full range of motion.\nNecropsy: Animals were humanely sacrificed at either 14 days or 28 days day post initial injection with an intravenous injection consisting of Diazepam 0.22 mg/kg and Ketamine 10 mg/kg for induction of general anesthesia. Following this, the anesthetized animals were given an IV overdose of concentrated potassium chloride (KCl) until the cardiac arrest had been verified.\nImmediately after dissection and following gross joint surface evaluation a sagital section of each joint was cut through the medial femoral condyle (MFC). These sections were placed individually in 10% neutral buffered formalin. The fixed tissue was shipped by overnight carrier to Premier Laboratories for processing. The right and left MFC sections were processed using standard histological techniques and stained with hematoxylin and eosin (H&E) and Safranin-O (SAF-O) with a fast green counter stain. The slides from the MFC sections were evaluated by the Mankin Scoring System for osteoarthritis as described in Table 12.", "key": {"[1]": {"settings": "Group 3, 2mg/ml, 14 day evaluation, MEAN"}, "[2]": {"settings": "Group 7, 2mg/ml, 28 day evaluation, MEAN"}, "[3]": {"settings": "Group 4, 8mg/ml, 14 day evaluation, MEAN"}, "[4]": {"settings": "Group 8, 8mg/ml, 28 day evaluation, MEAN, animal that died prematurely not included"}}, "note": "“And” between values parts separate entries of the source, which are not always exact repeats. Equal entries are not always repeated."}
{"smiles": "CC1(C)O[C@@H]2C[C@H]3[C@@H]4CCC5=CC(=O)C=C[C@]5(C)[C@@]4(F)[C@@H](O)C[C@]3(C)[C@]2(C(=O)CO)O1", "note": "[Triamcinolone Acetonide 2mg/ml, triamcinolone acetonide]", "values": [{"measurement": "Total Mankin Score", "setting": "Group 3, 2mg/ml, 14 day evaluation, right stifle 1.5 ml intra-articular, individual goats, maximal 14, normal 0", "value": "4.0 and 7.0 and 8.0"}, {"measurement": "Mankin Score: Tide Mark Integrity", "setting": "Group 3, 2mg/ml, 14 day evaluation, right stifle 1.5 ml intra-articular, individual goats, score 0-1", "value": 0.0}, {"measurement": "Mankin Score: Cells", "setting": "Group 3, 2mg/ml, 14 day evaluation, right stifle 1.5 ml intra-articular, individual goats, score 0-3", "value": "0.0 and 1.0 (2×)"}, {"measurement": "Mankin Score: Safranin-O Stain", "setting": "Group 3, 2mg/ml, 14 day evaluation, right stifle 1.5 ml intra-articular, individual goats, score 0-4", "value": "4.0 and 2.0 and 3.0"}, {"measurement": "Mankin Score: Structure", "setting": "Group 3, 2mg/ml, 14 day evaluation, right stifle 1.5 ml intra-articular, individual goats, score 0-6", "value": "0.0 and 4.0 (2×)"}, {"measurement": "Mankin Score: Cells", "setting": "[1]", "value": 0.7}, {"measurement": "Mankin Score: Safranin-O Stain", "setting": "[1]", "value": 3.0}, {"measurement": "Mankin Score: Structure", "setting": "[1]", "value": 2.7}, {"measurement": "Mankin Score: Tide Mark Integrity", "setting": "[1]", "value": 0.0}, {"measurement": "Total Mankin Score", "setting": "[1]", "value": 6.3}, {"measurement": "Total Mankin Score", "setting": "Group 7, 2mg/ml, 28 day evaluation, right stifle 1.5 ml intra-articular, individual goats, maximal 14, normal 0", "value": "6.0 and 9.0 and 10.0"}, {"measurement": "Mankin Score: Tide Mark Integrity", "setting": "Group 7, 2mg/ml, 28 day evaluation, right stifle 1.5 ml intra-articular, individual goats, score 0-1", "value": 0.0}, {"measurement": "Mankin Score: Cells", "setting": "Group 7, 2mg/ml, 28 day evaluation, right stifle 1.5 ml intra-articular, individual goats, score 0-3", "value": "2.0 (2×) and 3.0"}, {"measurement": "Mankin Score: Safranin-O Stain", "setting": "Group 7, 2mg/ml, 28 day evaluation, right stifle 1.5 ml intra-articular, individual goats, score 0-4", "value": "4.0 and 3.0 (2×)"}, {"measurement": "Mankin Score: Structure", "setting": "Group 7, 2mg/ml, 28 day evaluation, right stifle 1.5 ml intra-articular, individual goats, score 0-6", "value": "0.0 and 4.0 (2×)"}, {"measurement": "Mankin Score: Cells", "setting": "[2]", "value": 2.3}, {"measurement": "Mankin Score: Safranin-O Stain", "setting": "[2]", "value": 3.3}, {"measurement": "Mankin Score: Structure", "setting": "[2]", "value": 2.7}, {"measurement": "Mankin Score: Tide Mark Integrity", "setting": "[2]", "value": 0.0}, {"measurement": "Total Mankin Score", "setting": "[2]", "value": 8.3}]}
{"smiles": "CC1(C)O[C@@H]2C[C@H]3[C@@H]4CCC5=CC(=O)C=C[C@]5(C)[C@@]4(F)[C@@H](O)C[C@]3(C)[C@]2(C(=O)CO)O1", "note": "[Triamcinolone Acetonide 8mg/ml, triamcinolone acetonide]", "values": [{"measurement": "Total Mankin Score", "setting": "Group 4, 8mg/ml, 14 day evaluation, right stifle 1.5 ml intra-articular, individual goats, maximal 14, normal 0", "value": "9.0 and 3.0 and 4.0"}, {"measurement": "Mankin Score: Tide Mark Integrity", "setting": "Group 4, 8mg/ml, 14 day evaluation, right stifle 1.5 ml intra-articular, individual goats, score 0-1", "value": 0.0}, {"measurement": "Mankin Score: Cells", "setting": "Group 4, 8mg/ml, 14 day evaluation, right stifle 1.5 ml intra-articular, individual goats, score 0-3", "value": "1.0 and 0.0 (2×)"}, {"measurement": "Mankin Score: Safranin-O Stain", "setting": "Group 4, 8mg/ml, 14 day evaluation, right stifle 1.5 ml intra-articular, individual goats, score 0-4", "value": "3.0 (2×) and 4.0"}, {"measurement": "Mankin Score: Structure", "setting": "Group 4, 8mg/ml, 14 day evaluation, right stifle 1.5 ml intra-articular, individual goats, score 0-6", "value": "5.0 and 0.0 (2×)"}, {"measurement": "Mankin Score: Cells", "setting": "[3]", "value": 0.3}, {"measurement": "Mankin Score: Safranin-O Stain", "setting": "[3]", "value": 3.3}, {"measurement": "Mankin Score: Structure", "setting": "[3]", "value": 1.7}, {"measurement": "Mankin Score: Tide Mark Integrity", "setting": "[3]", "value": 0.0}, {"measurement": "Total Mankin Score", "setting": "[3]", "value": 5.3}, {"measurement": "Total Mankin Score", "setting": "Group 8, 8mg/ml, 28 day evaluation, right stifle 1.5 ml intra-articular, individual goats (3588 RFC* died prematurely, 19 days), maximal 14, normal 0", "value": "12.0 and 6.0"}, {"measurement": "Total Mankin Score", "setting": "Group 8, 8mg/ml, 28 day evaluation, right stifle 1.5 ml intra-articular, individual goats (3588 RFC* died prematurely, 19 days), maximal 14, normal 0, listed as Triamcinolone Acetonide 8mg/m1", "value": 10.0}, {"measurement": "Mankin Score: Tide Mark Integrity", "setting": "Group 8, 8mg/ml, 28 day evaluation, right stifle 1.5 ml intra-articular, individual goats (3588 RFC* died prematurely, 19 days), score 0-1", "value": 0.0}, {"measurement": "Mankin Score: Cells", "setting": "Group 8, 8mg/ml, 28 day evaluation, right stifle 1.5 ml intra-articular, individual goats (3588 RFC* died prematurely, 19 days), score 0-3", "value": "3.0 and 1.0"}, {"measurement": "Mankin Score: Cells", "setting": "Group 8, 8mg/ml, 28 day evaluation, right stifle 1.5 ml intra-articular, individual goats (3588 RFC* died prematurely, 19 days), score 0-3, listed as Triamcinolone Acetonide 8mg/m1", "value": 3.0}, {"measurement": "Mankin Score: Safranin-O Stain", "setting": "Group 8, 8mg/ml, 28 day evaluation, right stifle 1.5 ml intra-articular, individual goats (3588 RFC* died prematurely, 19 days), score 0-4", "value": 4.0}, {"measurement": "Mankin Score: Safranin-O Stain", "setting": "Group 8, 8mg/ml, 28 day evaluation, right stifle 1.5 ml intra-articular, individual goats (3588 RFC* died prematurely, 19 days), score 0-4, listed as Triamcinolone Acetonide 8mg/m1", "value": 3.0}, {"measurement": "Mankin Score: Structure", "setting": "Group 8, 8mg/ml, 28 day evaluation, right stifle 1.5 ml intra-articular, individual goats (3588 RFC* died prematurely, 19 days), score 0-6", "value": "5.0 and 1.0"}, {"measurement": "Mankin Score: Structure", "setting": "Group 8, 8mg/ml, 28 day evaluation, right stifle 1.5 ml intra-articular, individual goats (3588 RFC* died prematurely, 19 days), score 0-6, listed as Triamcinolone Acetonide 8mg/m1", "value": 4.0}, {"measurement": "Mankin Score: Cells", "setting": "[4]", "value": 2.0}, {"measurement": "Mankin Score: Safranin-O Stain", "setting": "[4]", "value": 4.0}, {"measurement": "Mankin Score: Structure", "setting": "[4]", "value": 3.0}, {"measurement": "Mankin Score: Tide Mark Integrity", "setting": "[4]", "value": 0.0}, {"measurement": "Total Mankin Score", "setting": "[4]", "value": 9.0}]}
{"smiles": "CC1(C)O[C@@H]2C[C@H]3[C@@H]4CCC5=CC(=O)C=C[C@]5(C)[C@@]4(F)[C@@H](O)C[C@]3(C)[C@]2(C(=O)CO)O1", "note": "[Triamcinolone Acetonide, triamcinolone acetonide]", "values": [{"measurement": "loss of Safranin O staining intensity portion of the modified Mankin score compared to either Groups 5 or 6", "setting": "Day 28, Groups 7 and 8 (2 and 8 mg/ml)", "value": "mild increase"}, {"measurement": "change in modified Mankin scores from Day 14 to Day 28", "setting": "goat stifle, 1.5 ml intra-articular", "value": "increase"}]}
